The viability is a read-out of living cells in per cent, often relative to untreated cells.

This data set can be described thus: in vitro. The note with it: human, hela cells, % viability.
As for `CC(C)(C)C(=O)Nc1nnc(SCC(=O)N2CCc3ccccc32)s1` [CBK004889], the viability at 28.5 h, 10 µM was found to be 83.5%.

With `C[C@@H](NC(=O)N(Cc1ccc([N+](=O)[O-])cc1)CC(C)(C)N)c1cccc2ccccc12` [CBK004921], the viability at 28.5 h, 10 µM was determined as 102%.

With `CC(C)(N)CN(Cc1ccc(Cl)cc1)C(=O)Nc1ccccc1-c1ccccc1` [CBK004924], the viability at 28.5 h, 10 µM was 105%. For the molecule `CN(C)C(=O)n1cc(Cl)c(-c2ccccc2)n1` [CBK004985], the viability at 28.5 h, 10 µM came to 97%. As for `S=C(NCC1CCN(C(=S)NC2CCCCC2)CC1)NC1CCCCC1` [CBK004987], the viability at 28.5 h, 10 µM amounted to 87.7%. Turning to `CC1CN(C(=S)Nc2ccc(NC(=S)N3CC(C)OC(C)C3)cc2)CC(C)O1` (stereo not drawn) [CBK004991], the viability at 28.5 h, 10 µM was 78.9%. For `CC1CN(C(=S)Nc2ccc3ccccc3c2)CC(C)O1` (stereo not drawn) [CBK004993], the viability at 28.5 h, 10 µM is 102%.

Take `COc1cc(Cc2c(OCCN(C)C)nc3ccccn3c2=O)cc(OC)c1OC` [CBK005004C]: the viability at 28.5 h, 10 µM is 99.9%.

For `CCN(CC)S(=O)(=O)c1cc(S(=O)(=O)N(CC)CC)c2cccc3c2c1NC(=O)O3` [CBK005022], the viability at 28.5 h, 10 µM worked out at 85.3%. As for `Cc1cn(C(C)(C)C(=O)N2CCOCC2)nc1-c1ccccc1Cl` [CBK005206], the viability at 28.5 h, 10 µM was 85.9%. Then `Cc1ccc(NS(=O)(=O)N(C)C)c(C)c1` [CBK005246], with 122%; and `c1ccc2c(c1)OCc1nnc(CCN3CCCCC3)n1-2` [CBK005285], with 95.2%; and `O=C1NC(=O)C(c2ccccc2)(c2ccccc2)N1` [CBK005292], with 108%. For `CCOC(=O)N1CCCC(=O)c2c(C(=O)O)cn(C)c21` [CBK005301], the viability at 28.5 h, 10 µM came out at 86.4%.

Take `CC(C)CC1C(=O)NCCN1Cc1ccccc1` (stereo not drawn) [CBK005336]: the viability at 28.5 h, 10 µM turned out to be 92%.

Regarding `COc1ccc(OC)c(NS(=O)(=O)N(C)C)c1` [CBK005362], the viability at 28.5 h, 10 µM was 94.1%.

On to `O=c1c(I)coc2ccc(Cl)cc12` [CBK005364], for which the viability at 28.5 h, 10 µM is 93.9%.

In the case of `S=C(Nc1ccccc1)c1ccccc1` [CBK005397], the viability at 28.5 h, 10 µM was found to be 100%. For the molecule `COc1ccccc1NC(=O)N(CC(C)C)CC(C)C` [CBK005456], the viability at 28.5 h, 10 µM stood at 102%. Then `Cc1cc(C)[n+](-c2ccccc2O)c(C)c1` [CBK005458G], with 116%; and `Cn1ccnc1[S+]([O-])Cc1nc2ccccc2s1` (stereo not drawn) [CBK005549], with 91.5%. Turning to `Cc1nn(Cc2nnc(SCC(=O)C(C)(C)C)o2)c(C)c1Br` [CBK005646], the viability at 28.5 h, 10 µM was found to be 92.1%. Then `CCOC(=O)C1=C(Nc2ccc(O)cc2)C(=O)N(C(C)(C)C)C1` [CBK005677], with 83%; and `CSCCN(CC(=O)O)Cc1ccccc1` [CBK005712], with 91.1%; and `COC(=O)c1sccc1-c1ccc(C2C3=C(CCCC3=O)NC3=C2C(=O)CCC3)o1` [CBK005748], with 92.3%.

Consider `COc1ccc(-c2c(C)nn(-c3ccc(Cl)nn3)c2C)c(C(=O)O)c1` [CBK005774], for which the viability at 28.5 h, 10 µM is 107%. Regarding `CN(C)CC(c1ccccc1)c1nnc2n1-c1ccc(S(C)(=O)=O)cc1C(c1ccccc1)=NC2` (stereo not drawn) [CBK005856G], the viability at 28.5 h, 10 µM was 102%. As for `CN(C)C[C@@H]1Cc2cccc3cccc(c23)[C@@H]1O` [CBK005877C], the viability at 28.5 h, 10 µM is 111%. Then `O/N=C/Nc1nccc(-c2cc(Cl)sc2Cl)n1` [CBK005934], with 87.5%; and `Cc1nc(C)c(-c2cnc(NS(=O)(=O)c3ccc(Cl)cc3)nc2)s1` [CBK005935], with 86.9%. As to `CSc1nc(N)n(-c2cc(C(F)(F)F)cc(C)n2)n1` [CBK005941], the viability at 28.5 h, 10 µM worked out at 89.9%. `COc1ccc(OCC(F)(F)F)c(C(=O)N2CCSCC2)c1` [CBK005950]: the viability at 28.5 h, 10 µM came to 83.7%. Then `CCN(CC)CC(O)Cn1ccc(-c2cccs2)n1` (stereo not drawn) [CBK005967], with 88.7%; and `Cn1c2c(ccc1=O)CCCCC2` [CBK005987], with 92%. As for `O=c1cc(O)c2c(=O)n(-c3ccccc3)c(-c3ccccc3)cc2o1` [CBK006116], the viability at 28.5 h, 10 µM was 89.1%. In the case of `Nc1nonc1-c1cccnc1` [CBK006120], the viability at 28.5 h, 10 µM was found to be 105%.

Consider `CC(C)(C)SCC(=O)c1ccc2c(c1)CCC(=O)N2` [CBK006168], for which the viability at 28.5 h, 10 µM turned out to be 104%. Then `CC1CCN(C(=S)Nc2ccccc2)CC(C)(C)C1` (stereo not drawn) [CBK006185], with 93.9%; and `Clc1cc(-c2cnc3ccccc3n2)c(Cl)s1` [CBK006186], with 85.4%; and `O=C1COCC(=O)N1c1ccccn1` [CBK006233], with 89.2%. For `OC1(C(F)(F)F)C=C(c2cccs2)ON1` (stereo not drawn) [CBK006243], the viability at 28.5 h, 10 µM came to 89%. Turning to `Nc1ccccc1Sc1nccc(C(F)(F)F)n1` [CBK006263], the viability at 28.5 h, 10 µM came to 94.5%. As for `CCOC(=O)N/N=C1\CCSc2sccc21` [CBK006300], the viability at 28.5 h, 10 µM is 110%. Take `FC(F)(F)c1nnc(-c2cc3sccc3s2)o1` [CBK006303]: the viability at 28.5 h, 10 µM came out at 96.4%.

For the molecule `CCCc1c(C(=O)NC2CC2)cnn1-c1ccc(Cl)cc1` [CBK006334], the viability at 28.5 h, 10 µM came to 112%. Take `OCC12COC3c4ccccc4C(OC1)N32` (stereo not drawn) [CBK006347]: the viability at 28.5 h, 10 µM worked out at 89.5%. Take `COC(=O)c1sc(N2CCOCC2)c(C#N)c1N` [CBK006430]: the viability at 28.5 h, 10 µM worked out at 101%. Then `CNC(=S)N(CCS(=O)(=O)c1ccc(Cl)cc1)Cc1cccs1` [CBK006431], with 97.5%; and `O=c1ccccn1COCc1ccccc1` [CBK006438], with 103%. For the molecule `Cc1c(C(=O)N2CCCCC2)sc2nc(C(F)(F)F)nn12` [CBK006455], the viability at 28.5 h, 10 µM was 105%. With `Cc1c2c(nn1C)CSc1ccccc1C2=O` [CBK006517], the viability at 28.5 h, 10 µM came to 92.8%. On to `S=C1NC2(CCCCC2)NC12CCCCC2` [CBK006533], for which the viability at 28.5 h, 10 µM worked out at 98.5%. For `COc1ccc(C)cc1NC(=O)Nc1nc(C)cs1` [CBK006565], the viability at 28.5 h, 10 µM came out at 83.3%. For the molecule `Cc1ccc2c(c1)N(CCO)C(C)(C)CC2C` (stereo not drawn) [CBK006567], the viability at 28.5 h, 10 µM came out at 92.1%. Consider `CNC(=O)C1/C(=N\O)c2ccccc2N1C(C)=O` (stereo not drawn) [CBK006569], for which the viability at 28.5 h, 10 µM was 114%. `COc1ccc(-c2cc(=O)n3cc[nH]c3n2)cc1` [CBK006659]: the viability at 28.5 h, 10 µM stood at 87.6%. Consider `CCCCC(O)C[N+]1(C)CCC(c2ccccc2)CC1` (stereo not drawn) [CBK006696I], for which the viability at 28.5 h, 10 µM was determined as 101%. Then `CC(C)(C)S(=O)(=O)c1ccc2nc3c(n2c1)CCCC3` [CBK006753], with 94.9%; and `N/C(=N\c1nonc1N)NC(=O)c1ccccc1` [CBK006756], with 71.5%; and `N/C(CSc1cccc2c1CCCC2)=N\O` [CBK006787C], with 101%.

As to `Cn1c(C(C)(C)C)cs/c1=N\NS(=O)(=O)c1ccccc1` [CBK006830B], the viability at 28.5 h, 10 µM was determined as 110%. Consider `CC(C)(C)c1cc(NC(=O)C(C)(C)S(=O)(=O)c2ccc(C(F)(F)F)cn2)no1` [CBK006849], for which the viability at 28.5 h, 10 µM came out at 113%.

For `COc1ccc(C(=O)n2nc(SC)nc2N)cc1` [CBK006853], the viability at 28.5 h, 10 µM was determined as 100%.

Source of the values: publication PMC12040169 (PLOS Biology, 2025).
